Laboratory results reported in the supplement of paper PMC13380429.

Key:
Conditions in all cases: 72 h
Caco-2 [1] = test: cell viability relative to DMSO; higher = less toxic
Calu-3 [2] = test: as above
HepG2 [3] = test: as above
U2OS [4] = test: as above
Vero E6 [5] = test: as above
Caco-2 [6] = test: relative viability EC50 (midpoint between 100% and the lowest measured viability); higher = less toxic
Calu-3 [7] = test: as above
HepG2 [8] = test: as above
U2OS [9] = test: as above
Vero E6 [10] = test: as above
Caco-2 [11] = test: drug sensitivity score (DSS) for viability; higher = more toxic; extreme values may be limits of the assay
Calu-3 [12] = test: as above
HepG2 [13] = test: as above
U2OS [14] = test: as above
Vero E6 [15] = test: as above

| SMILES | cell viability (Caco-2 [1]; 1 nM) [%] | cell viability (Caco-2 [1]; 10 nM) [%] | cell viability (Caco-2 [1]; 100 nM) [%] | cell viability (Caco-2 [1]; 1000 nM) [%] | cell viability (Caco-2 [1]; 10000 nM) [%] | cell viability (Calu-3 [2]; 1 nM) [%] | cell viability (Calu-3 [2]; 10 nM) [%] | cell viability (Calu-3 [2]; 100 nM) [%] | cell viability (Calu-3 [2]; 1000 nM) [%] | cell viability (Calu-3 [2]; 10000 nM) [%] | cell viability (HepG2 [3]; 1 nM) [%] | cell viability (HepG2 [3]; 10 nM) [%] | cell viability (HepG2 [3]; 100 nM) [%] | cell viability (HepG2 [3]; 1000 nM) [%] | cell viability (HepG2 [3]; 10000 nM) [%] | cell viability (U2OS [4]; 1 nM) [%] | cell viability (U2OS [4]; 10 nM) [%] | cell viability (U2OS [4]; 100 nM) [%] | cell viability (U2OS [4]; 1000 nM) [%] | cell viability (U2OS [4]; 10000 nM) [%] | cell viability (Vero E6 [5]; 1 nM) [%] | cell viability (Vero E6 [5]; 10 nM) [%] | cell viability (Vero E6 [5]; 100 nM) [%] | cell viability (Vero E6 [5]; 1000 nM) [%] | cell viability (Vero E6 [5]; 10000 nM) [%] | relative viability EC50 (Caco-2 [6]) [µM] | relative viability EC50 (Calu-3 [7]) [µM] | relative viability EC50 (HepG2 [8]) [µM] | relative viability EC50 (U2OS [9]) [µM] | relative viability EC50 (Vero E6 [10]) [µM] | drug sensitivity score (Caco-2 [11]) | drug sensitivity score (Calu-3 [12]) | drug sensitivity score (HepG2 [13]) | drug sensitivity score (U2OS [14]) | drug sensitivity score (Vero E6 [15]) |
| --- | --- | --- | --- | --- | --- | --- | --- | --- | --- | --- | --- | --- | --- | --- | --- | --- | --- | --- | --- | --- | --- | --- | --- | --- | --- | --- | --- | --- | --- | --- | --- | --- | --- | --- | --- |
| C#C[C@]1(O)CC[C@H]2[C@@H]3CCC4=CC(=O)CC[C@]4(C)[C@H]3CC[C@@]21C [ethisterone] | 89.4 | 103 | 89.4 | 91.1 | 97.5 | 95.7 | 95.9 | 103 | 103 | 102 | 109 | 102 | 97.9 | 95.1 | 97.6 | 97.3 | 103 | 94.6 | 96.4 | 102 | 106 | 102 | 105 | 101 | 95.6 | > 10 | > 10 | > 10 | > 10 | > 10 | 0 | 0 | 0 | 0 | 0 |
| CCC(N)C(O)c1ccc(O)c(O)c1 (stereo not given) [ethylnorepinephrine] | 93.7 | 95.5 | 103 | 89.9 | 95.1 | 101 | 99.4 | 108 | 91.9 | 104 | 100 | 110 | 98.7 | 109 | 102 | 100 | 94.8 | 98.4 | 98.4 | 99.3 | 93.9 | 102 | 104 | 107 | 112 | > 10 | > 10 | > 10 | > 10 | > 10 | 0 | 0 | 0 | 0 | 0 |
| CCOC(=O)Nc1ccc(NCc2ccc(F)cc2)nc1N [flupirtine] | 106 | 102 | 99.6 | 87.7 | 96 | 105 | 113 | 98.6 | 88.2 | 91.3 | 89.2 | 101 | 103 | 98.4 | 99.8 | 100 | 99.1 | 101 | 101 | 99.5 | 104 | 111 | 98.2 | 98.6 | 97 | > 10 | > 10 | > 10 | > 10 | > 10 | 0.6 | 0.5 | 0 | 0 | 0 |
| Fc1ccc(C(c2ccccc2)(c2ccccc2F)n2ccnc2)cc1 (stereo not given) [flutrimazole] | 122 | 112 | 96.1 | 98.9 | 80.5 | 102 | 92 | 107 | 90.4 | 106 | 106 | 110 | 95.7 | 96.5 | 97.7 | 108 | 107 | 107 | 102 | 97.1 | 97 | 102 | 108 | 118 | 99.2 | > 10 | > 10 | > 10 | > 10 | > 10 | 0.7 | 0 | 0 | 0 | 0 |
| CNC(=O)CN(CCN(CCN(CC(=O)[O-])CC(=O)NC)CC(=O)[O-])CC(=O)[O-].[Gd+3] [gadodiamide] | 92.9 | 98.9 | 90.9 | 91.1 | 103 | 115 | 96.9 | 105 | 98.8 | 108 | 96.6 | 102 | 108 | 98.6 | 93.1 | 103 | 102 | 96.6 | 98.3 | 98.1 | 97.6 | 101 | 98.5 | 97.9 | 94.3 | > 10 | > 10 | > 10 | > 10 | > 10 | 0 | 0 | 0 | 0 | 0 |
| CC(C)=CCC[C@](C)(O[C@@H]1O[C@H](CO)[C@@H](O)[C@H](O)[C@H]1O)[C@H]1CC[C@]2(C)[C@@H]1[C@H](O)C[C@@H]1[C@@]3(C)CC[C@H](O)C(C)(C)[C@@H]3CC[C@]12C [ginsenoside-C-K] | 91.7 | 104 | 94.5 | 96.2 | 102 | 89.3 | 97.3 | 98.9 | 101 | 99.4 | 108 | 111 | 106 | 92.7 | 85.9 | 99.4 | 94.7 | 99.7 | 97.5 | 99.3 | 109 | 99.7 | 103 | 98.4 | 98.1 | > 10 | > 10 | > 10 | > 10 | > 10 | 0 | 0 | 0.7 | 0 | 0 |
| O=C(O)c1ccc(S(=O)(=O)N(Cl)Cl)cc1 [halazone] | 112 | 93.5 | 84.2 | 90.1 | 90.8 | 106 | 99.6 | 95.4 | 94.7 | 107 | 97.1 | 94.1 | 110 | 107 | 100 | 101 | 95.6 | 98.7 | 95.6 | 102 | 107 | 108 | 106 | 97 | 96.7 | > 10 | > 10 | > 10 | > 10 | > 10 | 3.5 | 0 | 0 | 0 | 0 |
| CCc1ccc(/C=C/C(=O)Nc2ccc(C(C)=O)cc2)o1 [heclin] | 91.1 | 102 | 91.4 | 95.2 | 88.4 | 98.5 | 106 | 95 | 99.6 | 87.3 | 93.6 | 95.6 | 88.5 | 92.3 | 85.6 | 93.2 | 98.6 | 96.3 | 94.2 | 90.3 | 102 | 103 | 98.9 | 99.9 | 103 | > 10 | > 10 | > 10 | > 10 | > 10 | 0 | 0.1 | 0.4 | 0 | 0 |
| CC(O)COC[C@H]1O[C@@H]2O[C@H]3[C@H](O)[C@@H](O)[C@@H](O[C@H]4[C@H](O)[C@@H](O)[C@@H](O[C@H]5[C@H](O)[C@@H](O)[C@@H](O[C@H]6[C@H](O)[C@@H](O)[C@@H](O[C@H]7[C@H](O)[C@@H](O)[C@@H](O[C@H]8[C@H](O)[C@@H](O)[C@@H](O[C@H]1[C@H](O)[C@H]2O)O[C@@H]8COCC(C)O)O[C@@H]7COCC(C)O)O[C@@H]6COCC(C)O)O[C@@H]5COCC(C)O)O[C@@H]4COCC(C)O)O[C@@H]3COCC(C)O (stereo partly drawn) [hydroxypropyl-beta-cyclodextrin] | 92.3 | 97.1 | 103 | 100 | 95.7 | 100 | 91.5 | 94.8 | 98.8 | 100 | 98.6 | 97.5 | 98.3 | 95.9 | 98.2 | 97.5 | 98.5 | 104 | 98.2 | 98.4 | 104 | 96.1 | 102 | 101 | 103 | > 10 | > 10 | > 10 | > 10 | > 10 | 0 | 0 | 0 | 0 | 0 |
| CSCC1CN(/N=C/c2ccc([N+](=O)[O-])o2)C(=O)O1 (stereo not given) [inimur] | 90.6 | 97.7 | 92.7 | 94.5 | 89.4 | 89.9 | 97.4 | 96.8 | 104 | 101 | 100 | 93.8 | 96.5 | 94.3 | 93 | 98.2 | 101 | 95.8 | 101 | 105 | 96.6 | 96.4 | 89.7 | 89 | 95 | > 10 | > 10 | > 10 | > 10 | > 10 | 0 | 0 | 0 | 0 | 0 |
| CN[C@@H]1[C@@H](O)[C@@H](O[C@@H]2[C@@H](O)[C@H](O[C@H]3O[C@H](CN)[C@@H](O)[C@H](O)[C@H]3O)[C@@H](N)C[C@H]2NC(=O)[C@@H](O)CN)OC[C@]1(C)O [isepamicin] | 89.7 | 97 | 89.1 | 98 | 91.8 | 96.4 | 90.7 | 91.5 | 92.6 | 99.3 | 98.8 | 95.8 | 96.6 | 107 | 103 | 97.6 | 100 | 94.6 | 99.1 | 102 | 91.5 | 98.3 | 96.6 | 95.5 | 101 | > 10 | > 10 | > 10 | > 10 | > 10 | 0 | 0 | 0 | 0 | 0 |
| Cc1cc(NC(=O)C2=C(O)c3ccccc3S(=O)(=O)N2C)no1 [isoxicam] | 99.4 | 94.8 | 97.9 | 96.2 | 109 | 113 | 109 | 97.7 | 98.1 | 104 | 101 | 84.5 | 87.3 | 103 | 100 | 95.2 | 101 | 98.4 | 105 | 98.3 | 95.3 | 94.1 | 102 | 102 | 106 | > 10 | > 10 | > 10 | > 10 | > 10 | 0 | 0 | 0 | 0 | 0 |
| CCn1c(=O)c2c(nc(/C=C/c3ccc(OC)c(OC)c3)n2C)n(CC)c1=O [istradefylline] | 97.7 | 89.7 | 104 | 103 | 106 | 87.5 | 93.8 | 94.4 | 101 | 103 | 97.1 | 94.1 | 101 | 98.9 | 112 | 102 | 97.9 | 101 | 104 | 102 | 103 | 97.1 | 93.6 | 96.4 | 104 | > 10 | > 10 | > 10 | > 10 | > 10 | 0 | 0 | 0 | 0 | 0 |
| CN1CCC(=C2c3ccccc3CC(=O)c3sccc32)CC1 [ketotifen] | 110 | 101 | 94.1 | 89.7 | 96.3 | 108 | 93 | 101 | 95.5 | 105 | 98.5 | 96.9 | 112 | 92.9 | 84.9 | 101 | 99.3 | 103 | 96 | 103 | 99.4 | 93.6 | 96.4 | 98.4 | 84.9 | > 10 | > 10 | > 10 | > 10 | > 10 | 0.1 | 0 | 0.8 | 0 | 0.4 |
